Test results: US20100298141A1, “SUBSTITUTED PYRIDINE N-OXIDE HERBICIDES” (E. I. DU PONT DE NEMOURS AND COMPANY, priority 2007, published 2010)

Tests used:
barnyardgrass [1] = test: Test A pre-/postemergence greenhouse test; format: in vivo, Echinochloa crus-galli; details: for Plant response rating, Barnyardgrass: 0 to 100 scale where 0 is no effect and 100 is complete control; for Barnyardgrass plant response rating: 0 to 100 scale
How it was run: (§1)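 Seeds sown in a loam soil–sand blend got a preemergence directed soil spray of compound in a non-phytotoxic solvent mixture containing surfactant. Postemergence sprays of the same formulation went at the same time onto plants 2–10 cm tall at the one- to two-leaf stage. Injury was scored visually against untreated controls after about ten days in the greenhouse.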

crabgrass = test: Test A pre-/postemergence greenhouse test; format: in vivo, Digitaria sanguinalis; details: for Plant response rating, Crabgrass, Large: 0 to 100 scale where 0 is no effect and 100 is complete control; for Crabgrass, Large plant response rating: 0 to 100 scale
How it was run: as §1

giant foxtail = test: Test A pre-/postemergence greenhouse test; format: in vivo, Setaria faberi; details: for Plant response rating, Foxtail, Giant: 0 to 100 scale where 0 is no effect and 100 is complete control; for Foxtail, Giant plant response rating: 0 to 100 scale
How it was run: as §1

morningglory = test: Test A pre-/postemergence greenhouse test; format: in vivo, Ipomoea spp.; details: for Plant response rating, Morningglory: 0 to 100 scale where 0 is no effect and 100 is complete control; for Morningglory plant response rating: 0 to 100 scale
How it was run: as §1

redroot pigweed = test: Test A pre-/postemergence greenhouse test; format: in vivo, Amaranthus retroflexus; details: for Plant response rating, Pigweed: 0 to 100 scale where 0 is no effect and 100 is complete control; for Pigweed plant response rating: 0 to 100 scale
How it was run: as §1

velvetleaf = test: Test A pre-/postemergence greenhouse test; format: in vivo, Abutilon theophrasti; details: for Plant response rating, Velvetleaf: 0 to 100 scale where 0 is no effect and 100 is complete control; for Velvetleaf plant response rating: 0 to 100 scale
How it was run: as §1

wheat = test: Test A pre-/postemergence greenhouse test; format: in vivo, Triticum aestivum; details: for Plant response rating, Wheat: 0 to 100 scale where 0 is no effect and 100 is complete control; for Wheat plant response rating: 0 to 100 scale
How it was run: as §1

corn = test: Test A pre-/postemergence greenhouse test; format: in vivo, Zea mays; details: for Plant response rating, Corn: 0 to 100 scale where 0 is no effect and 100 is complete control; for Corn plant response rating: 0 to 100 scale
How it was run: as §1

rice = test: Test C flooded paddy test; format: in vivo, Oryza sativa; details: Flood
How it was run: (§2)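 Pots were flooded to 3 cm above the soil surface at treatment, compound applied directly to the paddy water, and that depth held throughout. Plants were kept in a greenhouse for 13 to 15 days, then visually rated against untreated controls.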

umbrella sedge = test: Test C flooded paddy test; format: in vivo, Cyperus difformis; details: Flood
How it was run: as §2

duck salad = test: Test C flooded paddy test; format: in vivo, Heteranthera limosa; details: Flood
How it was run: as §2

barnyardgrass [2] = test: Test C flooded paddy test; format: in vivo, Echinochloa crus-galli; details: Flood
How it was run: as §2

[3] = Postemergence, 500 g ai/ha, 0 is no effect, 100 is complete control
[4] = Preemergence, 125 g ai/ha, 0 no effect, 100 complete control
[5] = 62 g ai/ha, scale 0 to 100, 0 no effect, 100 complete control, 13 to 15 days
[6] = 250 g ai/ha, scale 0 to 100, 0 no effect, 100 complete control, 13 to 15 days
[7] = 62 g ai/ha, scale 0 to 100 (0 no effect, 100 complete control)

Compound	Plant response rating, Barnyardgrass (barnyardgrass [1]; Postemergence, 125 g ai/ha)	Barnyardgrass plant response rating (barnyardgrass [1]; [3])	Barnyardgrass plant response rating (barnyardgrass [1]; [4])	Plant response rating, Barnyardgrass (barnyardgrass [1]; Preemergence, 500 g ai/ha)	Plant response rating, Crabgrass, Large (crabgrass; Postemergence, 125 g ai/ha)	Crabgrass, Large plant response rating (crabgrass; [3])	Crabgrass, Large plant response rating (crabgrass; [4])	Plant response rating, Crabgrass, Large (crabgrass; Preemergence, 500 g ai/ha)	Plant response rating, Foxtail, Giant (giant foxtail; Postemergence, 125 g ai/ha)	Foxtail, Giant plant response rating (giant foxtail; [3])	Foxtail, Giant plant response rating (giant foxtail; [4])	Plant response rating, Foxtail, Giant (giant foxtail; Preemergence, 500 g ai/ha)	Plant response rating, Morningglory (morningglory; Postemergence, 125 g ai/ha)	Morningglory plant response rating (morningglory; [3])	Morningglory plant response rating (morningglory; [4])	Plant response rating, Morningglory (morningglory; Preemergence, 500 g ai/ha)	Plant response rating, Pigweed (redroot pigweed; Postemergence, 125 g ai/ha)	Pigweed plant response rating (redroot pigweed; [3])	Pigweed plant response rating (redroot pigweed; [4])	Plant response rating, Pigweed (redroot pigweed; Preemergence, 500 g ai/ha)	further results
O=S(=O)(Cc1c(C(F)(F)F)nn(CC(F)(F)F)c1Cl)c1ccc(Cl)c[n+]1[O-] [Compound 50]	60	70	70	90	60	70	60	90	70	70	80	90	30	30	30	40	20	30	80	100	Plant response rating, Velvetleaf (velvetleaf; Postemergence, 125 g ai/ha): 0; Velvetleaf plant response rating (velvetleaf; [3]): 0; Velvetleaf plant response rating (velvetleaf; [4]): 0; Plant response rating, Velvetleaf (velvetleaf; Preemergence, 500 g ai/ha): 0; Plant response rating, Wheat (wheat; Postemergence, 125 g ai/ha): 0; Wheat plant response rating (wheat; [3]): 0; Wheat plant response rating (wheat; [4]): 0; Plant response rating, Wheat (wheat; Preemergence, 500 g ai/ha): 0; Plant response rating, Corn (corn; Postemergence, 125 g ai/ha): 0; Corn plant response rating (corn; [3]): 0; Corn plant response rating (corn; [4]): 0; Plant response rating, Corn (corn; Preemergence, 500 g ai/ha): 0; Plant response rating, Rice (rice; [5]): 0; Plant response rating, Rice (rice; [6]): 30; Plant response rating, Sedge, Umbrella (umbrella sedge; [6]): 40; Plant response rating, Ducksalad (duck salad; [5]): 0; Plant response rating, Ducksalad (duck salad; [6]): 40; Plant response rating, Barnyardgrass (barnyardgrass [2]; [5]): 0; Plant response rating, Barnyardgrass (barnyardgrass [2]; [6]): 45
[O-][n+]1ccccc1[S+]([O-])C(Cl)c1c(C(F)(F)F)nn(CC(F)(F)F)c1Cl (stereo not shown) [Compound 45]	40	70	0	100	60	80	60	80	50	80	70	100	0	40	50	60	40	60	50	100	Plant response rating, Velvetleaf (velvetleaf; Postemergence, 125 g ai/ha): 30; Velvetleaf plant response rating (velvetleaf; [3]): 40; Velvetleaf plant response rating (velvetleaf; [4]): 0; Plant response rating, Velvetleaf (velvetleaf; Preemergence, 500 g ai/ha): 50; Plant response rating, Wheat (wheat; Postemergence, 125 g ai/ha): 0; Wheat plant response rating (wheat; [3]): 0; Wheat plant response rating (wheat; [4]): 0; Plant response rating, Wheat (wheat; Preemergence, 500 g ai/ha): 30; Plant response rating, Corn (corn; Postemergence, 125 g ai/ha): 0; Corn plant response rating (corn; [3]): 0; Corn plant response rating (corn; [4]): 0; Plant response rating, Corn (corn; Preemergence, 500 g ai/ha): 0; Plant response rating, Rice (rice; [5]): 0; Plant response rating, Rice (rice; [6]): 25; Plant response rating, Sedge, Umbrella (umbrella sedge; [6]): 80; Plant response rating, Ducksalad (duck salad; [5]): 40; Plant response rating, Ducksalad (duck salad; [6]): 75; Plant response rating, Barnyardgrass (barnyardgrass [2]; [5]): 0; Plant response rating, Barnyardgrass (barnyardgrass [2]; [6]): 20
Cn1nc(C(F)(F)F)c(C[S+]([O-])c2cc(C(C)(C)C)cc[n+]2[O-])c1OCC(F)(F)F (racemic) [Compound 61]	30	80	0	100	30	60	70	100	50	70	100	100	0	70	60	100	40	60	80	100	Plant response rating, Velvetleaf (velvetleaf; Postemergence, 125 g ai/ha): 0; Velvetleaf plant response rating (velvetleaf; [3]): 70; Velvetleaf plant response rating (velvetleaf; [4]): 0; Plant response rating, Velvetleaf (velvetleaf; Preemergence, 500 g ai/ha): 100; Plant response rating, Wheat (wheat; Postemergence, 125 g ai/ha): 50; Wheat plant response rating (wheat; [3]): 60; Wheat plant response rating (wheat; [4]): 50; Plant response rating, Wheat (wheat; Preemergence, 500 g ai/ha): 100; Plant response rating, Corn (corn; Postemergence, 125 g ai/ha): 30; Corn plant response rating (corn; [3]): 70; Corn plant response rating (corn; [4]): 0; Plant response rating, Corn (corn; Preemergence, 500 g ai/ha): 50; Plant response rating, Rice (rice; [7]): 20; Plant response rating, Rice (rice; [6]): 50; Plant response rating, Sedge, Umbrella (umbrella sedge; [7]): 0; Plant response rating, Sedge, Umbrella (umbrella sedge; [6]): 100; Plant response rating, Ducksalad (duck salad; [7]): 0; Plant response rating, Ducksalad (duck salad; [6]): 90; Plant response rating, Barnyardgrass (barnyardgrass [2]; [7]): 30; Plant response rating, Barnyardgrass (barnyardgrass [2]; [6]): 30
Cc1cc[n+]([O-])c([S+]([O-])Cc2c(C(F)(F)F)nn(CC(F)(F)F)c2Cl)c1 (stereo not shown) [Compound 48]	40	70	50	90	50	70	70	90	70	80	80	90	30	50	40	80	50	60	70	100	Plant response rating, Velvetleaf (velvetleaf; Postemergence, 125 g ai/ha): 0; Velvetleaf plant response rating (velvetleaf; [3]): 40; Velvetleaf plant response rating (velvetleaf; [4]): 0; Plant response rating, Velvetleaf (velvetleaf; Preemergence, 500 g ai/ha): 60; Plant response rating, Wheat (wheat; Postemergence, 125 g ai/ha): 0; Wheat plant response rating (wheat; [3]): 50; Wheat plant response rating (wheat; [4]): 20; Plant response rating, Wheat (wheat; Preemergence, 500 g ai/ha): 80; Plant response rating, Corn (corn; Postemergence, 125 g ai/ha): 0; Corn plant response rating (corn; [3]): 50; Corn plant response rating (corn; [4]): 0; Plant response rating, Corn (corn; Preemergence, 500 g ai/ha): 60; Plant response rating, Rice (rice; [5]): 0; Plant response rating, Rice (rice; [6]): 25; Plant response rating, Sedge, Umbrella (umbrella sedge; [6]): 50; Plant response rating, Ducksalad (duck salad; [5]): 0; Plant response rating, Ducksalad (duck salad; [6]): 25; Plant response rating, Barnyardgrass (barnyardgrass [2]; [5]): 0; Plant response rating, Barnyardgrass (barnyardgrass [2]; [6]): 0
Cn1nc(C(F)(F)F)c(C[S+]([O-])c2cc(Cl)cc[n+]2[O-])c1OC(F)F (stereo not shown) [Compound 57]	30	50	60	100	60	90	60	80	30	60	30	100	30	70	40	90	70	100	70	100	Plant response rating, Velvetleaf (velvetleaf; Postemergence, 125 g ai/ha): 30; Velvetleaf plant response rating (velvetleaf; [3]): 70; Velvetleaf plant response rating (velvetleaf; [4]): 50; Plant response rating, Velvetleaf (velvetleaf; Preemergence, 500 g ai/ha): 70; Plant response rating, Wheat (wheat; Postemergence, 125 g ai/ha): 50; Wheat plant response rating (wheat; [3]): 70; Wheat plant response rating (wheat; [4]): 20; Plant response rating, Wheat (wheat; Preemergence, 500 g ai/ha): 40; Plant response rating, Corn (corn; Postemergence, 125 g ai/ha): 0; Corn plant response rating (corn; [3]): 60; Corn plant response rating (corn; [4]): 0; Plant response rating, Corn (corn; Preemergence, 500 g ai/ha): 0; Plant response rating, Rice (rice; [5]): 0; Plant response rating, Rice (rice; [6]): 65; Plant response rating, Sedge, Umbrella (umbrella sedge; [6]): 100; Plant response rating, Ducksalad (duck salad; [5]): 40; Plant response rating, Ducksalad (duck salad; [6]): 95; Plant response rating, Barnyardgrass (barnyardgrass [2]; [5]): 15; Plant response rating, Barnyardgrass (barnyardgrass [2]; [6]): 20
